According to PubChem BioAssay (NCI):
“And” between values parts separate entries of the source, which are not always exact repeats. Identical values can stand only once.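 Tested at 5 concentrations; 48 h exposure; 96-well plates; endpoints linearly interpolated, else capped at highest concentration. GI50 = concentration required for 50% inhibition of growth. The concentration for full growth arrest is given as TGI.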

system: MDA-MB-468 breast; assay: NCI anticancer screen, dose series, 48 h

Compared with `Cc1ccccc1NC(=S)Nc1ccccn1`, `Cc1cc(C)nc(NC(N)=NCCc2ccccc2)n1` is 6.2-fold lower in GI50: 11.8 µM for the first, 1.91 µM for the second.

Going from `C[n+]1c(/C=C\C=C\N2CCCCC2)sc2ccccc21` to `CC/C(Cc1ccccc1)=C(\c1ccc(OCCN2CCCCCC2)cc1)c1ccc(OC(=O)NCc2ccccc2)cc1`, the GI50 rises from 0.238 µM to 2.03 µM (8.5-fold).

`COc1cc2c(cc1OCCCN1CCN(CCCOc3cc4c(cc3OC)C(=O)N3CCC[C@H]3C=N4)CC1)C=CC(C)(C)O2` and `Cc1c2cc[nH]c(=O)c2c(C)c2c1[nH]c1cc(OCCN3CCN(C)CC3)ccc12` are within 1.5-fold of each other in GI50: 0.469 µM for the first, 0.355 µM for the second.

Compared with `CC1=C([Se]CC(OC(=O)[C@@H](CSSC(C)(C)C)NC(=O)OC(C)(C)C)C(=O)NC(C)(C)C)C(=O)c2ccccc2C1=O` (stereo not given in full), `Cc1nc2ccc(CN(C)c3ccc(C(=O)N[C@@H](CCC(=O)O)C(=O)O)s3)cc2c(=O)[nH]1` is 29-fold lower in GI50: 1.66 µM for the first, 0.0578 µM for the second.

Compared with `COc1cc(C(=O)OCCCCCCCCCCC[P+](c2ccccc2)(c2ccccc2)c2ccccc2)ccc1O`, `Cc1ccc(C(=O)N(CCCN)[C@@H](c2nc3cc(Cl)ccc3c(=O)n2Cc2ccccc2)C(C)C)cc1` is lower in GI50: 0.284 µM for the first, less than 0.01 µM for the second.

Going from `COc1cc(/C(Cl)=C/C=C/C(=O)c2c(C)[n+]([O-])c3ccc(Cl)cc3[n+]2[O-])cc(OC)c1OC` to `COc1cc(-c2nn3c(/C=C4/C(=O)Nc5ccccc54)c(-c4ccc(C)cc4)nc3s2)cc(OC)c1OC`, the GI50 rises from 1.87 µM to 4.84 µM (2.6-fold).

First: O=S(=O)(Nc1ncccn1)c1ccc(N=Nc2ccc(O)c3ncccc23)cc1
Second: O=[N+]([O-])c1ccc(Nc2ccccc2-c2ccccc2)c2nonc12
The GI50 of the first is 1.7-fold higher: 8.83 µM for the first, 5.2 µM for the second.

Going from `Cn1ccnc1C(=O)/C=C/c1ccc(NC(=O)c2ccc(F)cc2)cc1` to `O=C(/C=C/c1ccc(B(O)O)cc1)/C=C/c1ccc(B(O)O)cc1`, the GI50 falls from 2.87 µM to 1.72 µM (1.7-fold).

First: OCC1OC(c2scc3c(=S)nc[nH]c23)C(O)C1O (stereo not given)
Second: Nc1ccn(C2OC(CO)C(O)C2F)c(=O)n1 (stereo not given)
The GI50 of the first is lower: 8.39 µM for the first, greater than 5000 µM for the second.

Compared with `C=CC(=O)Nc1ccc(Nc2nccc(-c3ccc(N4CCCC4)c(C#N)c3)n2)cc1`, `Cc1c2cnccc2c(C)c2c1c1cc(C3OCCCO3)ccc1n2C` is 29-fold lower in GI50: 7.43 µM for the first, 0.26 µM for the second.

Going from `COC1=CC(c2ccc[nH]2)=N/C1=C\c1[nH]c(C)c(C(=O)OCc2ccccc2)c1C` to `Cn1cc(-c2nonc2-c2c[nH]c3ccccc23)c2ccccc21`, the GI50 rises from 0.0584 µM to 0.304 µM (5.2-fold).

First: CO[C@H](C(=O)[C@@H](O)[C@@H](C)O)[C@@H]1Cc2cc3cc(O[C@H]4C[C@@H](O[C@H]5C[C@@H](O)[C@H](O)C(C)O5)[C@H](O)C(C)O4)c(C)c(O)c3c(O)c2C(=O)[C@H]1O[C@H]1C[C@@H](O[C@H]2C[C@@H](O[C@H]3C[C@@H](OC)[C@H](O)C(C)O3)[C@@H](O)C(C)O2)C(O)(O)C(C)O1 (stereo not given in full)
Second: CC(=O)C1=C(O)C=C2Oc3c(C(=O)/C=C/c4cc(C(F)(F)F)cc(C(F)(F)F)c4)c(O)c(C)c(O)c3[C@]2(C)C1=O
The GI50 of the first is 9.3-fold lower: 0.138 µM for the first, 1.29 µM for the second.

Going from `O=P([O-])(O)OP(=O)([O-])O.[NH-][C@H]1CCCC[C@@H]1[NH-].[OH-].[OH-].[Pt+4]` to `C=C1C(=O)O[C@H]2[C@H]1CC/C(CNC(=O)/C=C/c1ccc(Br)cc1)=C\CC[C@@]1(C)O[C@@H]21`, the GI50 falls from 18.8 µM to 0.391 µM (48-fold).

Going from `Cc1[nH]ncc1-c1cc2nc(C3CC4CCN3CC4)[nH]c(=O)c2s1` (stereo not given) to `COc1ccc(-c2[nH]ncc2-c2cc3c(c(OC)c2)OCC(=O)N3)cc1`, the GI50 falls from 9.05 µM to 0.354 µM (26-fold).

First: FC(F)(F)c1ccc(-c2nc(-c3nc4cc(Cl)c(Cl)cc4[nH]3)c3ccccn23)cc1
Second: CN(C)CCCOc1ccccc1NC1=C(Cl)C(=O)C(Nc2ccccc2OCCCN(C)C)=C(Cl)C1=O
The GI50 of the first is 17-fold higher: 3.05 µM for the first, 0.175 µM for the second.

In the case of `COC(=O)[C@@H](NC(=O)NC(=O)NC(=O)CI)C(C)C`, the GI50 is reported as 3.89 µM.

Compared with `Cc1ccccc1NC(=S)Nc1ccccn1`, `Cc1cc(C)nc(NC(N)=NCCc2ccccc2)n1` is 9.1-fold lower in TGI: 81.2 µM for the first, 8.95 µM for the second.

Compared with `C[n+]1c(/C=C\C=C\N2CCCCC2)sc2ccccc21`, `CC/C(Cc1ccccc1)=C(\c1ccc(OCCN2CCCCCC2)cc1)c1ccc(OC(=O)NCc2ccccc2)cc1` is 2.1-fold higher in TGI: 3.8 µM for the first, 8.15 µM for the second.

`COc1cc2c(cc1OCCCN1CCN(CCCOc3cc4c(cc3OC)C(=O)N3CCC[C@H]3C=N4)CC1)C=CC(C)(C)O2` and `Cc1c2cc[nH]c(=O)c2c(C)c2c1[nH]c1cc(OCCN3CCN(C)CC3)ccc12` are within 1.5-fold of each other in TGI: 2.45 µM for the first, 1.87 µM for the second.

Compared with `CC1=C([Se]CC(OC(=O)[C@@H](CSSC(C)(C)C)NC(=O)OC(C)(C)C)C(=O)NC(C)(C)C)C(=O)c2ccccc2C1=O` (stereo not given in full), `Cc1nc2ccc(CN(C)c3ccc(C(=O)N[C@@H](CCC(=O)O)C(=O)O)s3)cc2c(=O)[nH]1` is higher in TGI: 3.77 µM for the first, greater than 100 µM for the second.

Going from `COc1cc(C(=O)OCCCCCCCCCCC[P+](c2ccccc2)(c2ccccc2)c2ccccc2)ccc1O` to `Cc1ccc(C(=O)N(CCCN)[C@@H](c2nc3cc(Cl)ccc3c(=O)n2Cc2ccccc2)C(C)C)cc1`, the TGI falls from 1.09 µM to less than 0.01 µM.

Compared with `COc1cc(/C(Cl)=C/C=C/C(=O)c2c(C)[n+]([O-])c3ccc(Cl)cc3[n+]2[O-])cc(OC)c1OC`, `COc1cc(-c2nn3c(/C=C4/C(=O)Nc5ccccc54)c(-c4ccc(C)cc4)nc3s2)cc(OC)c1OC` is 3.3-fold higher in TGI: 9.29 µM for the first, 30.6 µM for the second.

`O=S(=O)(Nc1ncccn1)c1ccc(N=Nc2ccc(O)c3ncccc23)cc1` and `O=[N+]([O-])c1ccc(Nc2ccccc2-c2ccccc2)c2nonc12` are within 1.5-fold of each other in TGI: 31.2 µM for the first, 30.5 µM for the second.

First: Cn1ccnc1C(=O)/C=C/c1ccc(NC(=O)c2ccc(F)cc2)cc1
Second: O=C(/C=C/c1ccc(B(O)O)cc1)/C=C/c1ccc(B(O)O)cc1
The TGI of the first is 3.7-fold higher: 15.9 µM for the first, 4.34 µM for the second.

`OCC1OC(c2scc3c(=S)nc[nH]c23)C(O)C1O` (stereo not given) and `Nc1ccn(C2OC(CO)C(O)C2F)c(=O)n1` (stereo not given) cannot be ordered by TGI: greater than 100 µM for the first, greater than 5000 µM for the second.

Going from `C=CC(=O)Nc1ccc(Nc2nccc(-c3ccc(N4CCCC4)c(C#N)c3)n2)cc1` to `Cc1c2cnccc2c(C)c2c1c1cc(C3OCCCO3)ccc1n2C`, the TGI falls from greater than 25 µM to 0.928 µM.

Compared with `COC1=CC(c2ccc[nH]2)=N/C1=C\c1[nH]c(C)c(C(=O)OCc2ccccc2)c1C`, `Cn1cc(-c2nonc2-c2c[nH]c3ccccc23)c2ccccc21` is 4.3-fold higher in TGI: 0.73 µM for the first, 3.12 µM for the second.

First: CO[C@H](C(=O)[C@@H](O)[C@@H](C)O)[C@@H]1Cc2cc3cc(O[C@H]4C[C@@H](O[C@H]5C[C@@H](O)[C@H](O)C(C)O5)[C@H](O)C(C)O4)c(C)c(O)c3c(O)c2C(=O)[C@H]1O[C@H]1C[C@@H](O[C@H]2C[C@@H](O[C@H]3C[C@@H](OC)[C@H](O)C(C)O3)[C@@H](O)C(C)O2)C(O)(O)C(C)O1 (stereo not given in full)
Second: CC(=O)C1=C(O)C=C2Oc3c(C(=O)/C=C/c4cc(C(F)(F)F)cc(C(F)(F)F)c4)c(O)c(C)c(O)c3[C@]2(C)C1=O
The TGI of the first is 3.8-fold lower: 1.17 µM for the first, 4.46 µM for the second.

First: O=P([O-])(O)OP(=O)([O-])O.[NH-][C@H]1CCCC[C@@H]1[NH-].[OH-].[OH-].[Pt+4]
Second: C=C1C(=O)O[C@H]2[C@H]1CC/C(CNC(=O)/C=C/c1ccc(Br)cc1)=C\CC[C@@]1(C)O[C@@H]21
The TGI of the first is 24-fold higher: 39.9 µM for the first, 1.67 µM for the second.

`Cc1[nH]ncc1-c1cc2nc(C3CC4CCN3CC4)[nH]c(=O)c2s1` (stereo not given) and `COc1ccc(-c2[nH]ncc2-c2cc3c(c(OC)c2)OCC(=O)N3)cc1` are within 1.5-fold of each other in TGI: 32.2 µM for the first, 28.4 µM for the second.

Going from `FC(F)(F)c1ccc(-c2nc(-c3nc4cc(Cl)c(Cl)cc4[nH]3)c3ccccn23)cc1` to `CN(C)CCCOc1ccccc1NC1=C(Cl)C(=O)C(Nc2ccccc2OCCCN(C)C)=C(Cl)C1=O`, the TGI falls from greater than 100 µM to 0.352 µM.

`COC(=O)[C@@H](NC(=O)NC(=O)NC(=O)CI)C(C)C` was tested, and the TGI was 16 µM.

`CN1CCN(c2ccc(C(=O)Nc3n[nH]c4ccc(Cc5cc(F)cc(F)c5)cc34)c(NC3CCOCC3)c2)CC1` was tested, and the GI50 was 1.35 µM.
In the case of `CN1CCc2cc3c(cc2C1O)OCO3` (stereo not given), the GI50 is reported as 16 µM and > 100 µM.
For `CC(C)[C@](O)(c1ccc2cc(OC(F)F)c(OC(F)F)cc2c1)c1cn[nH]n1`, the GI50 was 20.9 µM and 14.2 µM.
With `CNC(=O)c1cc(COc2nnc(Nc3ccc(Cl)cc3)c3ccoc23)ccn1` the GI50 was 6.94 µM and > 10 µM.

In the case of `CN1CCN(c2ccc(C(=O)Nc3n[nH]c4ccc(Cc5cc(F)cc(F)c5)cc34)c(NC3CCOCC3)c2)CC1`, the TGI is reported as 3.09 µM and 2.91 µM.
For `CN1CCc2cc3c(cc2C1O)OCO3` (stereo not given), the TGI was 34.4 µM and > 100 µM.
With `CC(C)[C@](O)(c1ccc2cc(OC(F)F)c(OC(F)F)cc2c1)c1cn[nH]n1` the TGI was 57.6 µM and 41.3 µM.
With `CNC(=O)c1cc(COc2nnc(Nc3ccc(Cl)cc3)c3ccoc23)ccn1` the TGI was 30.9 µM and > 10 µM.
